Experimental data from patent US12064503B2, “High-potency vitamin C and sugar alcohol topical formulations” (ICB (an ABC), LLC, priority 2020, dated 2024).

Tests used:
skin [1] = settings: topical use of 4% HQ or 5% Vitamin C; cited from earlier work
[2] = Solubility in non-aqueous skin-compatible solvents; settings: neat solvent
skin [3] = settings: cream containing 10% MAP; cited from earlier work
skin [4] = settings: topical; cited from earlier work
skin [5] = settings: concentrations of 0.2%; clinical data from SEPPIC; cited from earlier work

O=C1O[C@H]([C@@H](O)CO)C(O)=C1O [AA, L-ascorbic acid]
improvement (skin [1]): 62.5%

CO[C@H]1CO[C@H]2[C@@H]1OC[C@H]2OC [Dimethyl isosorbide]
ability of the solvent to solubilize ascorbic acid [2]: very limited

Oc1ccc(O)cc1 [HQ, hydroquinone]
improvement (skin [1]): 93%
side-effects (skin [1]): 68.7%

O=C1O[C@H]([C@@H](O)CO)C([O-])=C1OP(=O)([O-])[O-].O=C1O[C@H]([C@@H](O)CO)C([O-])=C1OP(=O)([O-])[O-].[Mg+2].[Mg+2].[Mg+2] [MAP, magnesium ascorbyl phosphate]
brighten/lighten the appearance of the skin (skin [3]): effectively brighten/lighten

CC(C)(CO)[C@@H](O)C(=O)NCCCO [Panthenol]
concentration at which inhibition of transepidermal water loss is apparent (skin [4]): ≥ 1%

madecassoside
ability to reduce erythema (skin redness) (skin [5]): desirable ability to reduce erythema
